{
  "source": "patent US12391697B2",
  "about": "“Condensed bi-heterocycles as inhibiting agents for Bruton's tyrosine kinase” (BIOGEN MA INC., priority 2019, dated 2025)",
  "note": "Structures can show the parent of a compound that is named as a salt.",
  "data": [
    {"biological_target": "BTK (Homo sapiens (Human), UniProt Q06187)", "sequence (Q06187 whole entry)": "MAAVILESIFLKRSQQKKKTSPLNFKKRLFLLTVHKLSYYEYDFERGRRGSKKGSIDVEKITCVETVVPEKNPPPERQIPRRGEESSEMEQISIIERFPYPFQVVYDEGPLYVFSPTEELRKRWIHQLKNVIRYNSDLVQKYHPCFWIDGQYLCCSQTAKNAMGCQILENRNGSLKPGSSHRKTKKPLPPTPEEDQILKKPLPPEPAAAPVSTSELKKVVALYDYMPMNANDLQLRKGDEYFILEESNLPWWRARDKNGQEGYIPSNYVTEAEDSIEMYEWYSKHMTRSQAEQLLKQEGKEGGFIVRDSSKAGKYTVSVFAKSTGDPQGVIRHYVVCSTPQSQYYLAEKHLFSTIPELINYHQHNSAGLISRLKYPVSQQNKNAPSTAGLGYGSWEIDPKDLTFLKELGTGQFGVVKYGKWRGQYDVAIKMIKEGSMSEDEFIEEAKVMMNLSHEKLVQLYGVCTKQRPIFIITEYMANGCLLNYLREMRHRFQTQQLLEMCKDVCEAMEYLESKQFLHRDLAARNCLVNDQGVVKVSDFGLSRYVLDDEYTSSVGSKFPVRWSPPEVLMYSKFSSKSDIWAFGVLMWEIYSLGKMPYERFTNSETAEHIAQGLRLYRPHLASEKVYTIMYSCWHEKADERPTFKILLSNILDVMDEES", "assay": "In Vitro BTK Kinase Assay: Btk-PolyGAT-LS Assay", "type": "biochemical", "details": "active BTK enzyme 0.25 nM, ATP 10 μM, polyGAT 100 nM, 30 minutes", "procedure": "In Vitro BTK Kinase Assay: Btk-PolyGAT-LS Assay\nThe purpose of the BTK in vitro assay is to determine compound potency against BTK through the measurement of IC50. […] The BTK kinase reaction was done in a black 96 well plate (costar 3694). For a typical assay, a […] aliquot of a ATP/peptide master mix (final concentration; ATP 10 μM, polyGAT 100 nM) in kinase buffer (10 mM Tris-HCl pH 7.5, 10 mM MgCl2, 200 μM […], 5 mM DTT, 0.01% Triton X-100, and 0.2 mg/ml casein) is added to each well. Next, […] of a 4-fold, 40× compound titration in 100% DMSO solvent is added, followed by adding 15 uL of BTK enzyme mix in 1× kinase buffer (with a final concentration of 0.25 nM). The assay is incubated for 30 minutes before being stopped with […] of a 50 mM EDTA solution. Aliquots (5 uL) of the kinase reaction are transferred to a low volume white 384 well plate (Corning 3674), and […] of a 2× detection buffer (Invitrogen PV3574, with 4 nM Tb-PY20 antibody, Invitrogen PV3552) is added. The plate is covered and incubated for 45 minutes at room temperature. Time resolved fluorescence (TRF) on Molecular Devices M5 (332 nm excitation; 488 nm emission; 518 nm fluorescein emission) is measured.", "units": {"IC50": "nM"}, "values": [
      {"compound": "CC(C)(C)c1noc(C(=O)NCc2ccc(-c3ncnn4cc(N5CCOCC5)cc34)cc2CC(F)F)n1", "note": "[Example 65, 3-(tert-butyl)-N-(2-(2,2-difluoroethyl)-4-(6-morpholinopyrrolo[2,1-f][1,2,4]triazin-4-yl)benzyl)-1,2,4-oxadiazole-5-carboxamide hydrochloride]", "IC50": "≤ 1"},
      {"compound": "Cn1cc(-c2cc3c(-c4ccc(CNC(=O)c5nc(C(C)(C)C)no5)c(CC(F)F)c4F)ncnn3c2)cn1", "note": "[Example 66, 3-(tert-butyl)-N-(2-(2,2-difluoroethyl)-3-fluoro-4-(6-(1-methyl-1H-pyrazol-4-yl)pyrrolo[2,1-f][1,2,4]triazin-4-yl)benzyl)-1,2,4-oxadiazole-5-carboxamide hydrochloride]", "IC50": "≤ 1"},
      {"compound": "Cc1cc(-c2ncnn3cc(C(=O)N(C)C)cc23)ccc1CNC(=O)c1noc(C(C)(C)C)n1", "note": "[Example 67, 5-(tert-butyl)-N-(4-(6-(dimethylcarbamoyl)pyrrolo[2,1-f][1,2,4]triazin-4-yl)-2-methylbenzyl)-1,2,4-oxadiazole-3-carboxamide hydrochloride]", "IC50": "≤ 1"},
      {"compound": "Cc1cc(-c2ncnn3cc(-c4ncccn4)cc23)ccc1CNC(=O)c1noc(C(C)(C)C)n1", "note": "[Example 68, 5-(tert-butyl)-N-(2-methyl-4-(6-(pyrimidin-2-yl)pyrrolo[2,1-f][1,2,4]triazin-4-yl)benzyl)-1,2,4-oxadiazole-3-carboxamide hydrochloride]", "IC50": "≤ 1"},
      {"compound": "Cc1cc(-c2ncnn3cc(N4CCN(C)CC4)cc23)ccc1CNC(=O)c1nc(C(C)(C)C)no1", "note": "[Example 69, 3-(tert-butyl)-N-(2-methyl-4-(6-(4-methylpiperazin-1-yl)pyrrolo[2,1-f][1,2,4]triazin-4-yl)benzyl)-1,2,4-oxadiazole-5-carboxamide]", "IC50": "≤ 1"},
      {"compound": "Cc1cc(-c2ncnn3cc(N4CCN(C)C[C@H]4C)cc23)ccc1CNC(=O)c1noc(C(C)(C)C)n1", "note": "[Example 70, (R)-5-(tert-butyl)-N-(4-(6-(2,4-dimethylpiperazin-1-yl)pyrrolo[2,1-f][1,2,4]triazin-4-yl)-2-methylbenzyl)-1,2,4-oxadiazole-3-carboxamide trifluoroacetate]", "IC50": "1 to 10"},
      {"compound": "Cc1cc(-c2ncnn3cc(C4COC4)cc23)ccc1CNC(=O)c1noc(C(C)(C)C)n1", "note": "[Example 71, 5-(tert-butyl)-N-(2-methyl-4-(6-(oxetan-3-yl)pyrrolo[2,1-f][1,2,4]triazin-4-yl)benzyl)-1,2,4-oxadiazole-3-carboxamide trifluoroacetate]", "IC50": "> 10"},
      {"compound": "Cc1cc(-c2ncnn3cc(C4CCOCC4)cc23)ccc1CNC(=O)c1nc(C(C)(C)C)no1", "note": "[Example 72, 3-(tert-butyl)-N-(2-methyl-4-(6-(tetrahydro-2H-pyran-4-yl)pyrrolo[2,1-f][1,2,4]triazin-4-yl)benzyl)-1,2,4-oxadiazole-5-carboxamide trifluoroacetate]", "IC50": "1 to 10"},
      {"compound": "Cc1cc(-c2ncnn3cc(N4CC(CO)(CO)C4)cc23)ccc1CNC(=O)c1noc(C(C)(C)C)n1", "note": "[Example 73, N-(4-(6-(3,3-bis(hydroxymethyl)azetidin-1-yl)pyrrolo[2,1-f][1,2,4]triazin-4-yl)-2-methylbenzyl)-5-(tert-butyl)-1,2,4-oxadiazole-3-carboxamide]", "IC50": "≤ 1"},
      {"compound": "Cc1cc(-c2ncnn3cc(N4CCN(C5COC5)C[C@@H]4C)cc23)ccc1CNC(=O)c1noc(C(C)(C)C)n1", "note": "[Example 75, (S)-5-(tert-butyl)-N-(2-methyl-4-(6-(2-methyl-4-(oxetan-3-yl)piperazin-1-yl)pyrrolo[2,1-f][1,2,4]triazin-4-yl)benzyl)-1,2,4-oxadiazole-3-carboxamide]", "IC50": "1 to 10"},
      {"compound": "C#Cc1cc2c(-c3ccc(CNC(=O)c4noc(C(C)(C)C)n4)c(C)c3)ncnn2c1", "note": "[Example 76, 5-(tert-butyl)-N-(4-(6-ethynylpyrrolo[2,1-f][1,2,4]triazin-4-yl)-2-methylbenzyl)-1,2,4-oxadiazole-3-carboxamide trifluoroacetate]", "IC50": "1 to 10"},
      {"compound": "COCc1cc2c(-c3ccc(CNC(=O)c4noc(C(C)(C)C)n4)c(C)c3)ncnn2c1", "note": "[Example 77, 5-(tert-butyl)-N-(4-(6-(methoxymethyl)pyrrolo[2,1-f][1,2,4]triazin-4-yl)-2-methylbenzyl)-1,2,4-oxadiazole-3-carboxamide hydrochloride]", "IC50": "1 to 10"},
      {"compound": "Cc1cc(-c2ncnn3cc(N4CCOC(C)(C)C4)cc23)ccc1CNC(=O)c1noc(C(C)(C)C)n1", "note": "[Example 78, 5-(tert-butyl)-N-(4-(6-(2,2-dimethylmorpholino)pyrrolo[2,1-f][1,2,4]triazin-4-yl)-2-methylbenzyl)-1,2,4-oxadiazole-3-carboxamide hydrochloride]", "IC50": "≤ 1"},
      {"compound": "Cc1cc(-c2ncnn3cc(OC4CCOCC4)cc23)ccc1CNC(=O)c1noc(C(C)(C)C)n1", "note": "[Example 79, 5-(tert-butyl)-N-(2-methyl-4-(6-((tetrahydro-2H-pyran-4-yl)oxy)pyrrolo[2,1-f][1,2,4]triazin-4-yl)benzyl)-1,2,4-oxadiazole-3-carboxamide]", "IC50": "1 to 10"},
      {"compound": "Cc1cc(-c2ncnn3cc(-c4cnn(C)c4)cc23)ccc1CNC(=O)c1noc(C(C)(C)C)n1", "note": "[Example 80, 5-(tert-butyl)-N-(2-methyl-4-(6-(1-methyl-1H-pyrazol-4-yl)pyrrolo[2,1-f][1,2,4]triazin-4-yl)benzyl)-1,2,4-oxadiazole-3-carboxamide]", "IC50": "≤ 1"},
      {"compound": "Cc1c(CNC(=O)c2nnc(C(C)(C)C)o2)ccc(-c2ncnn3cc(N4CCOCC4)cc23)c1F", "note": "[Example 81]", "IC50": "1 to 10"},
      {"compound": "Cc1c(CNC(=O)c2nc(C(C)(C)C)no2)ccc(-c2ccnc3cc(-c4cnn(C)c4)nn23)c1F", "note": "[Example 83]", "IC50": "≤ 1"},
      {"compound": "Cc1c(CNC(=O)c2noc(C(C)(C)C)n2)ccc(-c2ccnc3cc(N4CCOCC4)nn23)c1F", "note": "[Example 84]", "IC50": "1 to 10"},
      {"compound": "Cc1cc(-c2ncnn3cc(-c4cn[nH]c4)cc23)ccc1CNC(=O)c1noc(C(C)(C)C)n1", "note": "[Example 85]", "IC50": "≤ 1"},
      {"compound": "Cc1c(CNC(=O)c2noc(C(C)(C)C)n2)ccc(-c2ncnn3cc(N4CCOCC4)cc23)c1F", "note": "[Example 86]", "IC50": "≤ 1"},
      {"compound": "Cc1c(CNC(=O)c2cn(C(C)(C)C)nn2)ccc(-c2ncnn3cc(N4CCOCC4)cc23)c1F", "note": "[Example 87]", "IC50": "≤ 1"},
      {"compound": "Cc1c(CNC(=O)c2cnn(C(C)(C)C)c2)ccc(-c2ncnn3cc(N4CCOCC4)cc23)c1F", "note": "[Example 88]", "IC50": "≤ 1"},
      {"compound": "Cc1c(CNC(=O)c2ccn(C(C)(C)C)n2)ccc(-c2ncnn3cc(N4CCOCC4)cc23)c1F", "note": "[Example 89]", "IC50": "1 to 10"},
      {"compound": "Cc1cc(-c2ncnn3cc(N4CCN(C)C[C@H]4C)cc23)ccc1CNC(=O)c1noc(C(C)(C)C)n1", "note": "[Example 92]", "IC50": "1 to 10"},
      {"compound": "Cc1cc(-c2ncnn3cc(N4C[C@@H]5C[C@H]4CN5C)cc23)ccc1CNC(=O)c1noc(C(C)(C)C)n1", "note": "[Example 93]", "IC50": "> 10"},
      {"compound": "Cc1cc(-c2ncnn3cc(CC4CCOCC4)cc23)ccc1CNC(=O)c1noc(C(C)(C)C)n1", "note": "[Example 94]", "IC50": "> 10"},
      {"compound": "Cc1cc(-c2ncnn3cc(C4CCOC4)cc23)ccc1CNC(=O)c1noc(C(C)(C)C)n1", "note": "(stereo not shown) [Example 95]", "IC50": "1 to 10"},
      {"compound": "Cc1cc(-c2ncnn3cc(N4CCN(C)C(C)C4)cc23)ccc1CNC(=O)c1noc(C(C)(C)C)n1", "note": "(stereo not shown) [Example 96]", "IC50": "≤ 1"},
      {"compound": "COC1CCN(c2cc3c(-c4ccc(CNC(=O)c5nc(C(C)(C)C)no5)c(C)c4)ncnn3c2)CC1", "note": "[Example 97]", "IC50": "≤ 1"},
      {"compound": "Cc1cc(-c2ncnn3cc(N4CCN(C)C(C)C4)cc23)ccc1CNC(=O)c1nnn(C(C)(C)C)n1", "note": "(stereo not shown) [Example 98]", "IC50": "≤ 1"},
      {"compound": "Cc1cc(-c2ncnn3cc(N4CCOC(C(C)C)C4)cc23)ccc1CNC(=O)c1nc(C(C)(C)C)no1", "note": "(stereo not shown) [Example 100]", "IC50": "1 to 10"},
      {"compound": "Cc1cc(-c2ncnn3cc(C4=CCSCC4)cc23)ccc1CNC(=O)c1noc(C(C)(C)C)n1", "note": "[Example 101]", "IC50": "≤ 1"},
      {"compound": "Cc1cc(-c2ncnn3cc(C#N)cc23)ccc1CNC(=O)c1noc(C(C)(C)C)n1", "note": "[Example 102]", "IC50": "1 to 10"},
      {"compound": "Cc1cc(-c2ncnn3cc(C4=CCOCC4)cc23)ccc1CNC(=O)c1nc(C(C)(C)C)no1", "note": "[Example 103]", "IC50": "≤ 1"},
      {"compound": "Cc1cc(-c2ncnn3cc(-c4cnn(C5COC5)c4)cc23)ccc1CNC(=O)c1noc(C(C)(C)C)n1", "note": "[Example 104]", "IC50": "≤ 1"},
      {"compound": "Cc1cc(-c2ncnn3cc(N4CCOCC4)cc23)ccc1CNC(=O)c1nc(C(C)(C)C)no1", "note": "[Example 105]", "IC50": "≤ 1"},
      {"compound": "Cc1cc(-c2ncnn3cc(-c4cn(C)nn4)cc23)ccc1CNC(=O)c1noc(C(C)(C)C)n1", "note": "[Example 106]", "IC50": "≤ 1"},
      {"compound": "Cc1cc(-c2ncnn3cc(-c4cnn(C(F)F)c4)cc23)ccc1CNC(=O)c1noc(C(C)(C)C)n1", "note": "[Example 107]", "IC50": "≤ 1"},
      {"compound": "Cc1cc(-c2ncnn3cc(-c4cn(C)nc4C)cc23)ccc1CNC(=O)c1noc(C(C)(C)C)n1", "note": "[Example 108]", "IC50": "≤ 1"},
      {"compound": "Cc1cc(-c2ncnn3cc(-c4cnn(C)c4C)cc23)ccc1CNC(=O)c1noc(C(C)(C)C)n1", "note": "[Example 109]", "IC50": "≤ 1"},
      {"compound": "Cc1cc(-c2ncnn3cc(-c4cnco4)cc23)ccc1CNC(=O)c1noc(C(C)(C)C)n1", "note": "[Example 110]", "IC50": "≤ 1"},
      {"compound": "Cc1c(CNC(=O)c2noc(C(C)(C)C)n2)ccc(-c2ncnn3cc(-c4cnn(C)c4)cc23)c1F", "note": "[Example 112]", "IC50": "≤ 1"},
      {"compound": "Cc1cc(-c2ncnn3cc(-c4cnn(C)c4)cc23)ccc1CNC(=O)c1nnn(C(C)(C)C)n1", "note": "[Example 113]", "IC50": "≤ 1"}
    ]}
  ]
}
